Experimental data published in patent US20230085307A1, “PYRIDAZINONE COMPOUND AND HERBICIDE” (NISSAN CHEMICAL CORPORATION, priority 2019, published 2023).

How the values were obtained:
persian speedwell [1] = test: Test Example 5: herbicidal effect by foliage application, plastic box (Table 20, symbol R); type: in vivo, Persian speedwell (Veronica persica)
Outline: (§1)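 Foliar spray test: emulsion formulation diluted in water to a set application rate, sprayed onto 14-day-old plants raised in diluvial soil at 25° C to 30° C under glass. Both herbicidal effect and crop effect rated visually three weeks later.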

Italian ryegrass [2] = test: Test Example 5: herbicidal effect by foliage application, plastic box (Table 20, symbol K); type: in vivo, Italian ryegrass (Lolium multiflorum)
Outline: as §1

wild oat [3] = test: Test Example 5: herbicidal effect by foliage application, plastic box (Table 20, symbol I); type: in vivo, wild oat (Avena fatua)
Outline: as §1

lambsquarters [4] = test: Test Example 5: herbicidal effect by foliage application, plastic box (Table 20, symbol O); type: in vivo, lambsquarters (Chenopodium album)
Outline: as §1

chickweed [5] = test: Test Example 5: herbicidal effect by foliage application, plastic box (Table 20, symbol P); type: in vivo, common chickweed (Stellaria media)
Outline: as §1

redroot pigweed [6] = test: Test Example 5: herbicidal effect by foliage application, plastic box (Table 20, symbol N); type: in vivo, redroot pigweed (Amaranthus retroflexus)
Outline: as §1

blackgrass [7] = test: Test Example 5: herbicidal effect by foliage application, plastic box (Table 20, symbol J); type: in vivo, blackgrass (Alopecurus myosuroides)
Outline: as §1

southern crabgrass [8] = test: Test Example 5: herbicidal effect by foliage application, plastic box (Table 20, symbol F); type: in vivo, southern crabgrass (Digitaria ciliaris)
Outline: as §1

windgrass [9] = test: Test Example 5: herbicidal effect by foliage application, plastic box (Table 20, symbol L); type: in vivo, windgrass (Apera spica-venti); details: foliage application, AAH 320 g/ha, three weeks after application
Outline: as §1

green foxtail [10] = test: Test Example 5: herbicidal effect by foliage application, plastic box (Table 20, symbol G); type: in vivo, green foxtail (Setaria viridis)
Outline: as §1

green foxtail [11] = test: Test Example 4: herbicidal effect by soil treatment (Table 19, symbol G); type: in vivo, green foxtail (Setaria viridis)
Outline: (§2)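 Herbicidal effect was rated 3 weeks after treatment, using the scoring criteria of an earlier test. The compound, formulated as an emulsion and diluted in water to a set herbicide amount, had been sprayed uniformly on soil over freshly sown seeds. Growth took place in a greenhouse at 25° C. to 30° C.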

chickweed [12] = test: Test Example 4: herbicidal effect by soil treatment (Table 19, symbol P); type: in vivo, common chickweed (Stellaria media)
Outline: as §2

velvetleaf [13] = test: Test Example 4: herbicidal effect by soil treatment (Table 19, symbol M); type: in vivo, velvetleaf (Abutilon theophrasti)
Outline: as §2

blackgrass [14] = test: Test Example 4: herbicidal effect by soil treatment (Table 19, symbol J); type: in vivo, blackgrass (Alopecurus myosuroides)
Outline: as §2

barnyard grass [15] = test: Test Example 5: herbicidal effect by foliage application, plastic box (Table 20, symbol H); type: in vivo, barnyard grass (Echinochloa crus-galli)
Outline: as §1

persian speedwell [16] = test: Test Example 4: herbicidal effect by soil treatment (Table 19, symbol R); type: in vivo, Persian speedwell (Veronica persica)
Outline: as §2

barnyard grass [17] = test: Test Example 4: herbicidal effect by soil treatment (Table 19, symbol H); type: in vivo, barnyard grass (Echinochloa crus-galli)
Outline: as §2

Italian ryegrass [18] = test: Test Example 4: herbicidal effect by soil treatment (Table 19, symbol K); type: in vivo, Italian ryegrass (Lolium multiflorum)
Outline: as §2

redroot pigweed [19] = test: Test Example 4: herbicidal effect by soil treatment (Table 19, symbol N); type: in vivo, redroot pigweed (Amaranthus retroflexus)
Outline: as §2

southern crabgrass [20] = test: Test Example 4: herbicidal effect by soil treatment (Table 19, symbol F); type: in vivo, southern crabgrass (Digitaria ciliaris)
Outline: as §2

lambsquarters [21] = test: Test Example 4: herbicidal effect by soil treatment (Table 19, symbol O); type: in vivo, lambsquarters (Chenopodium album)
Outline: as §2

windgrass [22] = test: Test Example 4: herbicidal effect by soil treatment (Table 19, symbol L); type: in vivo, windgrass (Apera spica-venti)
Outline: as §2

velvetleaf [23] = test: Test Example 5: herbicidal effect by foliage application, plastic box (Table 20, symbol M); type: in vivo, velvetleaf (Abutilon theophrasti)
Outline: as §1

wild oat [24] = test: Test Example 4: herbicidal effect by soil treatment (Table 19, symbol I); type: in vivo, wild oat (Avena fatua)
Outline: as §2

barnyard grass [25] = test: Test Example 3: herbicidal effect by foliage application, Wagner pot (Table 18, symbol H); type: in vivo, barnyard grass (Echinochloa crus-galli); details: 320 g/ha
Outline: (§3)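 Plants were sown in alluvial soil held under 0.1–0.5 cm standing water and grown 14 days in a greenhouse at 25–30 °C. An emulsifiable formulation, water-diluted to the set dose, was then sprayed onto the foliage, and effects were scored three weeks later using previously defined criteria.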

rice flat sedge = test: Test Example 3: herbicidal effect by foliage application, Wagner pot (Table 18, symbol E); type: in vivo, rice flat sedge (Cyperus iria); details: 320 g/ha
Outline: as §3

Chinese sprangletop = test: Test Example 3: herbicidal effect by foliage application, Wagner pot (Table 18, symbol D); type: in vivo, chinese sprangletop (Leptochloa chinensis); details: 320 g/ha
Outline: as §3

[26] = foliage application, AAH 320 g/ha, three weeks after application
[27] = 320 g/ha, foliage application after 14-day growth, evaluated three weeks after application
[28] = amount of applied herbicide 320 g/ha

CCCC(=O)Oc1c(OC)nn(C)c(=O)c1-c1c(-c2ccc(OC)cc2OC)sc2ccccc12 [1-181]
R: persian speedwell, herbicidal effect (persian speedwell [1]; [26]): 1 (Herbicidal rate of 5% or more and less than 20%) | K: Italian ryegrass, herbicidal effect (Italian ryegrass [2]; [26]): 0 (Herbicidal rate of 5% or less (almost no effect)) | I: wild oat, herbicidal effect (wild oat [3]; [26]): 0 (Herbicidal rate of 5% or less (almost no effect)) | O: lambsquarters, herbicidal effect (lambsquarters [4]; [26]): 1 (Herbicidal rate of 5% or more and less than 20%) | P: chickweed, herbicidal effect (chickweed [5]; [26]): 4 (Herbicidal rate of 70% or more and less than 90%) | N: redroot pigweed, herbicidal effect (redroot pigweed [6]; [26]): 0 (Herbicidal rate of 5% or less (almost no effect)) | J: blackgrass, herbicidal effect (blackgrass [7]; [26]): 0 (Herbicidal rate of 5% or less (almost no effect)) | F: southern crabgrass, herbicidal effect (southern crabgrass [8]; [26]): 0 (Herbicidal rate of 5% or less (almost no effect)) | L: windgrass, herbicidal effect (windgrass [9]): 0 (Herbicidal rate of 5% or less (almost no effect)) | G: green foxtail, herbicidal effect (green foxtail [10]; [26]): 0 (Herbicidal rate of 5% or less (almost no effect)) | G: green foxtail, herbicidal effect rating (green foxtail [11]; AAH 320 g/ha): 0 (Herbicidal rate of 5% or less (almost no effect)) | P: chickweed, herbicidal effect rating (chickweed [12]; AAH 320 g/ha): 1 (Herbicidal rate of 5% or more and less than 20%) | M: velvetleaf, herbicidal effect rating (velvetleaf [13]; AAH 320 g/ha): 0 (Herbicidal rate of 5% or less (almost no effect)) | J: blackgrass, herbicidal effect rating (blackgrass [14]; AAH 320 g/ha): 0 (Herbicidal rate of 5% or less (almost no effect)) | H: barnyard grass, herbicidal effect (barnyard grass [15]; [26]): 0 (Herbicidal rate of 5% or less (almost no effect)) | R: persian speedwell, herbicidal effect rating (persian speedwell [16]; AAH 320 g/ha): 1 (Herbicidal rate of 5% or more and less than 20%) | H: barnyard grass, herbicidal effect rating (barnyard grass [17]; AAH 320 g/ha): 0 (Herbicidal rate of 5% or less (almost no effect)) | K: Italian ryegrass, herbicidal effect rating (Italian ryegrass [18]; AAH 320 g/ha): 0 (Herbicidal rate of 5% or less (almost no effect)) | N: redroot pigweed, herbicidal effect rating (redroot pigweed [19]; AAH 320 g/ha): 0 (Herbicidal rate of 5% or less (almost no effect)) | F: southern crabgrass, herbicidal effect rating (southern crabgrass [20]; AAH 320 g/ha): 0 (Herbicidal rate of 5% or less (almost no effect)) | O: lambsquarters, herbicidal effect rating (lambsquarters [21]; AAH 320 g/ha): 0 (Herbicidal rate of 5% or less (almost no effect)) | L: windgrass, herbicidal effect rating (windgrass [22]; AAH 320 g/ha): 0 (Herbicidal rate of 5% or less (almost no effect)) | M: velvetleaf, herbicidal effect (velvetleaf [23]; [26]): 0 (Herbicidal rate of 5% or less (almost no effect)) | I: wild oat, herbicidal effect rating (wild oat [24]; AAH 320 g/ha): 0 (Herbicidal rate of 5% or less (almost no effect))

Cc1nn(C)c(=O)c(-c2c(-c3ccc(F)cc3)sc3c(F)cccc23)c1O [4-001]
herbicidal effect on R: persian speedwell (evaluation grade 0-5) (persian speedwell [1]; [27]): 5 (Herbicidal rate of 90% or more (almost completely withered)) | herbicidal effect on K: Italian ryegrass (evaluation grade 0-5) (Italian ryegrass [2]; [27]): 2 (Herbicidal rate of 20% or more and less than 40%) | herbicidal effect on I: wild oat (evaluation grade 0-5) (wild oat [3]; [27]): 0 (Herbicidal rate of 5% or less (almost no effect)) | herbicidal effect on O: lambsquarters (evaluation grade 0-5) (lambsquarters [4]; [27]): 2 (Herbicidal rate of 20% or more and less than 40%) | herbicidal effect on P: chickweed (evaluation grade 0-5) (chickweed [5]; [27]): 5 (Herbicidal rate of 90% or more (almost completely withered)) | herbicidal effect on N: redroot pigweed (evaluation grade 0-5) (redroot pigweed [6]; [27]): 3 (Herbicidal rate of 40% or more and less than 70%) | herbicidal effect on J: blackgrass (evaluation grade 0-5) (blackgrass [7]; [27]): 2 (Herbicidal rate of 20% or more and less than 40%) | herbicidal effect on F: southern crabgrass (evaluation grade 0-5) (southern crabgrass [8]; [27]): 0 (Herbicidal rate of 5% or less (almost no effect)) | herbicidal effect on G: green foxtail (evaluation grade 0-5) (green foxtail [10]; [27]): 4 (Herbicidal rate of 70% or more and less than 90%) | Herbicidal effect by soil treatment, G: green foxtail (green foxtail [11]; [28]): 0 (Herbicidal rate of 5% or less (almost no effect)) | herbicidal effect on barnyard grass (H) (barnyard grass [25]): 4 (Herbicidal rate of 70% or more and less than 90%) | Herbicidal effect by soil treatment, P: chickweed (chickweed [12]; [28]): 4 (Herbicidal rate of 70% or more and less than 90%) | Herbicidal effect by soil treatment, M: velvetleaf (velvetleaf [13]; [28]): 3 (Herbicidal rate of 40% or more and less than 70%) | Herbicidal effect by soil treatment, J: blackgrass (blackgrass [14]; [28]): 0 (Herbicidal rate of 5% or less (almost no effect)) | herbicidal effect on H: barnyard grass (evaluation grade 0-5) (barnyard grass [15]; [27]): 2 (Herbicidal rate of 20% or more and less than 40%) | herbicidal effect on rice flat sedge (E) (rice flat sedge): 5 (Herbicidal rate of 90% or more (almost completely withered)) | herbicidal effect on Chinese sprangletop (D) (Chinese sprangletop): 3 (Herbicidal rate of 40% or more and less than 70%) | Herbicidal effect by soil treatment, R: persian speedwell (persian speedwell [16]; [28]): 4 (Herbicidal rate of 70% or more and less than 90%) | Herbicidal effect by soil treatment, H: barnyard grass (barnyard grass [17]; [28]): 0 (Herbicidal rate of 5% or less (almost no effect)) | Herbicidal effect by soil treatment, K: Italian ryegrass (Italian ryegrass [18]; [28]): 0 (Herbicidal rate of 5% or less (almost no effect)) | Herbicidal effect by soil treatment, N: redroot pigweed (redroot pigweed [19]; [28]): 2 (Herbicidal rate of 20% or more and less than 40%) | Herbicidal effect by soil treatment, F: southern crabgrass (southern crabgrass [20]; [28]): 0 (Herbicidal rate of 5% or less (almost no effect)) | Herbicidal effect by soil treatment, O: lambsquarters (lambsquarters [21]; [28]): 5 (Herbicidal rate of 90% or more (almost completely withered)) | Herbicidal effect by soil treatment, L: windgrass (windgrass [22]; [28]): 0 (Herbicidal rate of 5% or less (almost no effect)) | herbicidal effect on M: velvetleaf (evaluation grade 0-5) (velvetleaf [23]; [27]): 5 (Herbicidal rate of 90% or more (almost completely withered)) | Herbicidal effect by soil treatment, I: wild oat (wild oat [24]; [28]): 0 (Herbicidal rate of 5% or less (almost no effect))
